Experimental data published in US20240374590A1, “COMPOSITIONS AND METHODS FOR TREATING CANCER” (A2A PHARMACEUTICALS, INC., priority 2021, published 2024).

Columns and labels:
[1] = tested on: JIMT-1 human breast cancer cell line; assay: Cell viability assay (SRB) in JIMT-1; assay type: cell-based; conditions: 72 hours after treatment, read-out: JIMT1 IC50
Method: (§1) Human colon carcinoma cell line HCT-116 was a kind gift from Igor Ronninson from University of South Caroli, Columbia, USA. Human breast cancer cell line, JIMT-1 was kindly provided by Ali Osmay Güre from Bilkent University, Ankara, Turkey. Cells were cultured in Dulbecco's modified Eagle's medium (Lonza, NJ, USA), supplemented with 10% fetal bovine serum (FBS, Lonza), 1% non-essential amino acid (NEAA), 2 mM L-glutamine (Sigma Aldrich, MO, USA) and 50 U/ml penicillin/streptomycin (P/S). HCT-116 cells were cultured in McCoy's 5A (modified) (Gibco) medium supplemented with FBS, NEAA, L-glutamine and P/S. All cell lines were tested regularly using MycoAlert Mycoplasma Detection Kit (Lonza). The cumulative length of the cells between thawing and use in the experiments was less than 20 passages.
(§2) Newly synthesized molecules were dissolved in 100% DMSO to yield a stock concentration of 10 mM. For cell viability assay, JIMT-1 (3×10^3 cells/well) and HCT-116 (4×10^3), cells were seeded into 96-well plates, and 24 hours after cell seeding inhibitor treatments were performed at different concentrations. Cell viability was measured 72 hours after treatment with Sulforhodamine B (SRB, Sigma Aldrich) assay as recommended by the manufacturer.

[2] = tested on: HCT-116 human colon carcinoma cell line; assay: Cell viability assay (SRB) in HCT-116; assay type: cell-based; conditions: 72 hours after treatment, read-out: HCT116 IC50
Method: as §1, §2

Compound | IC50 [1] [nM] | IC50 [2] [nM]
COc1ccc(-c2cc(Nc3ccnc(N4CCCC4)n3)[nH]n2)c(F)c1 [Compound 151, N-(3-(2-fluoro-4-methoxyphenyl)-1H-pyrazol-5-yl)-2-(pyrrolidin-1-yl)pyrimidin-4-amine] | 18 | 52
C[C@@H]1CN(c2ncc(Cl)c(Nc3cc(-c4ccc(OC(F)F)cc4)n[nH]3)n2)C[C@H](C)O1 [Compound 288, 5-chloro-N-(3-(4-(difluoromethoxy)phenyl)-1H-pyrazol-5-yl)-2-((2R,6S)-2,6-dimethylmorpholino)pyrimidin-4-amine] | 443 | 456
FC(F)Oc1ccc(-c2cc(Nc3ccnc(N4CC(F)(F)C4)n3)[nH]n2)cc1 [Compound 249, 2-(3,3-difluoroazetidin-1-yl)-N-(3-(4-(difluoromethoxy)phenyl)-1H-pyrazol-5-yl)pyrimidin-4-amine] | 305 | ≥ 10000
COc1ccc(-c2cc(Nc3nc(N4C[C@@H](C)O[C@@H](C)C4)ncc3Cl)[nH]n2)c(F)c1 [Compound 281, 5-chloro-2-((2R,6S)-2,6-dimethylmorpholino)-N-(3-(2-fluoro-4-methoxyphenyl)-1H-pyrazol-5-yl)pyrimidin-4-amine] | 131 | 436
COc1ccc(-c2cc(Nc3ccnc(N4CCOC(C(F)(F)F)C4)n3)[nH]n2)cc1F (stereo not drawn) [Compound 96, N-(3-(3-fluoro-4-methoxyphenyl)-1H-pyrazol-5-yl)-2-(2-(trifluoromethyl)morpholino)pyrimidin-4-amine] | 47 | 89
COc1ccc(-c2cc(Nc3ccnc(N4CCCCC4)n3)[nH]n2)c(F)c1 [Compound 152, N-(3-(2-fluoro-4-methoxyphenyl)-1H-pyrazol-5-yl)-2-(piperidin-1-yl)pyrimidin-4-amine] | 5 | 11
COc1ccc(-c2cc(Nc3ccnc(C4CCOCC4)n3)[nH]n2)c(F)c1 [Compound 318, N-(3-(2-fluoro-4-methoxyphenyl)-1H-pyrazol-5-yl)-2-(tetrahydro-2H-pyran-4-yl)pyrimidin-4-amine] | 319 | 293
COc1ccc(-c2cc(Nc3ccnc(N4CCCCCC4)n3)[nH]n2)c(F)c1 [Compound 167, 2-(azepan-1-yl)-N-(3-(2-fluoro-4-methoxyphenyl)-1H-pyrazol-5-yl)pyrimidin-4-amine] | 41 | 89
C[C@H]1CN(c2nccc(Nc3cc(-c4ccc(OC(F)F)cc4)n[nH]3)n2)C[C@H](C)O1 [Compound 241, N-(3-(4-(difluoromethoxy)phenyl)-1H-pyrazol-5-yl)-2-((25,6S)-2,6-dimethylmorpholino)pyrimidin-4-amine] | 46 | 1810
COc1ccc(-c2cc(Nc3ccnc(N4C[C@@H](C)O[C@@H](C)C4)n3)n(C)n2)c(F)c1 [Compound 187, 2-((2R,6S)-2,6-dimethylmorpholino)-N-(3-(2-fluoro-4-methoxyphenyl)-1-methyl-1H-pyrazol-5-yl)pyrimidin-4-amine] | 158 | 228
C[C@H]1COCCN1c1nccc(Nc2cc(-c3ccc(OC(F)F)cc3)n[nH]2)n1 [Compound 263, (S)-N-(3-(4-(difluoromethoxy)phenyl)-1H-pyrazol-5-yl)-2-(3-methylmorpholino)pyrimidin-4-amine] | 30 | 79
C[C@@H]1CN(c2nccc(Nc3cc(-c4ccc(F)cc4)[nH]n3)n2)C[C@H](C)O1 [Compound 196, 2-((2R,6S)-2,6-dimethylmorpholino)-N-(5-(4-fluorophenyl)-1H-pyrazol-3-yl)pyrimidin-4-amine] | 383 | 619
FC(F)Oc1ccc(-c2cc(Nc3ccnc(N4CC5CCC(C4)O5)n3)[nH]n2)cc1 [Compound 260, 2-(8-oxa-3-azabicyclo[3.2.1]octan-3-yl)-N-(3-(4-(difluoromethoxy)phenyl)-1H-pyrazol-5-yl)pyrimidin-4-amine] | 648 | 8980
FC(F)Oc1ccc(-c2cc(Nc3ccnc(N4CCCOCC4)n3)[nH]n2)cc1 [Compound 255, N-(3-(4-(difluoromethoxy)phenyl)-1H-pyrazol-5-yl)-2-(1,4-oxazepan-4-yl)pyrimidin-4-amine] | 279 | 312
COc1ccc(-c2cc(Nc3ccnc(N4C[C@H](C)O[C@@H](C)C4)n3)[nH]n2)c(F)c1 [Compound 150, 2-((2S,6S)-2,6-dimethylmorpholino)-N-(3-(2-fluoro-4-methoxyphenyl)-1H-pyrazol-5-yl)pyrimidin-4-amine] | 16 | 23
CC1COCC(C)N1c1ncc(F)c(Nc2cc(-c3ccc(OC(F)F)cc3)n[nH]2)n1 (stereo not drawn) [Compound 286, N-(3-(4-(difluoromethoxy)phenyl)-1H-pyrazol-5-yl)-2-(3,5-dimethylmorpholino)-5-fluoropyrimidin-4-amine] | 1680 | 5220
Fc1cnc(N2CCC2)nc1Nc1cc(-c2ccc(OC(F)F)cc2)n[nH]1 [Compound 289, 2-(azetidin-1-yl)-N-(3-(4-(difluoromethoxy)phenyl)-1H-pyrazol-5-yl)-5-fluoropyrimidin-4-amine] | 180 | 371
C[C@H]1CN(c2ncc(F)c(Nc3cc(-c4ccc(OC(F)F)cc4)n[nH]3)n2)C[C@H](C)O1 [Compound 293, N-(3-(4-(difluoromethoxy)phenyl)-1H-pyrazol-5-yl)-2-((2S,6S)-2,6-dimethylmorpholino)-5-fluoropyrimidin-4-amine] | 255 | 332
COc1ccc(-c2cc(Nc3ccnc(N4CCC(C(F)(F)F)CC4)n3)[nH]n2)c(F)c1 [Compound 132, N-(3-(2-fluoro-4-methoxyphenyl)-1H-pyrazol-5-yl)-2-(4-(trifluoromethyl)piperidin-1-yl)pyrimidin-4-amine] | 18 | 38
COc1ccc(-c2cc(Nc3ccnc(N4CCOC(C(F)(F)F)C4)n3)[nH]n2)c(F)c1 (stereo not drawn) [Compound 139, N-(3-(2-fluoro-4-methoxyphenyl)-1H-pyrazol-5-yl)-2-(2-(trifluoromethyl)morpholino)pyrimidin-4-amine] | 91 | 146
C[C@@H]1CN(c2ncc(F)c(Nc3cc(-c4ccc(OC(F)F)cc4)n[nH]3)n2)C[C@H](C)O1 [Compound 287, N-(3-(4-(difluoromethoxy)phenyl)-1H-pyrazol-5-yl)-2-((2R,6S)-2,6-dimethylmorpholino)-5-fluoropyrimidin-4-amine] | 49 | 91
COc1ccc(-c2cc(Nc3ccnc(N4CC5COCC5C4)n3)[nH]n2)c(F)c1 (stereo not drawn) [Compound 140, N-(3-(2-fluoro-4-methoxyphenyl)-1H-pyrazol-5-yl)-2-(tetrahydro-1H-furo[3,4-c]pyrrol-5(3H)-yl)pyrimidin-4-amine] | 107 | 457
C[C@@H]1CN(c2nccc(Nc3cc(-c4ccc(C(C)(F)F)cc4)n[nH]3)n2)C[C@H](C)O1 [Compound 200, N-(3-(4-(1,1-difluoroethyl)phenyl)-1H-pyrazol-5-yl)-2-((2R,6S)-2,6-dimethylmorpholino)pyrimidin-4-amine] | 143 | 386
COc1ccc(-c2cc(Nc3ccnc(N4CCC(C)(C)CC4)n3)[nH]n2)c(F)c1 [Compound 143, 2-(4,4-dimethylpiperidin-1-yl)-N-(3-(2-fluoro-4-methoxyphenyl)-1H-pyrazol-5-yl)pyrimidin-4-amine] | 426 | 1010
CC1(F)CN(c2nccc(Nc3cc(-c4ccc(OC(F)F)cc4)n[nH]3)n2)C1 [Compound 248, N-(3-(4-(difluoromethoxy)phenyl)-1H-pyrazol-5-yl)-2-(3-fluoro-3-methylazetidin-1-yl)pyrimidin-4-amine] | 1560 | ≥ 10000
COc1ccc(-c2cc(Nc3ccnc(N4CCOCC4)n3)[nH]n2)c(F)c1 [Compound 56, N-(3-(2-fluoro-4-methoxyphenyl)-1H-pyrazol-5-yl)-2-morpholinopyrimidin-4-amine] | 23 | 36
CC1COCCN1c1nccc(Nc2cc(-c3ccc(OC(F)F)cc3)n[nH]2)n1 (stereo not drawn) [Compound 229, N-(3-(4-(difluoromethoxy)phenyl)-1H-pyrazol-5-yl)-2-(3-methylmorpholino)pyrimidin-4-amine] | 96 | 62
COc1ccc(-c2cc(Nc3ccnc(N4CCC(C)CC4)n3)[nH]n2)c(F)c1 [Compound 130, N-(3-(2-fluoro-4-methoxyphenyl)-1H-pyrazol-5-yl)-2-(4-methylpiperidin-1-yl)pyrimidin-4-amine] | 18 | 7
C[C@@H]1CN(c2nccc(Nc3cc(-c4ccc(OCF)cc4)n[nH]3)n2)C[C@H](C)O1 [Compound 210, 2-((2R,6S)-2,6-dimethylmorpholino)-N-(3-(4-(fluoromethoxy)phenyl)-1H-pyrazol-5-yl)pyrimidin-4-amine] | 30 | 31
COc1ccc(-c2cc(Nc3ccnc(N4CCC4)n3)[nH]n2)c(F)c1 [Compound 153, 2-(azetidin-1-yl)-N-(3-(2-fluoro-4-methoxyphenyl)-1H-pyrazol-5-yl)pyrimidin-4-amine] | 6 | 10
